Experimental data as given in ChEMBL document CHEMBL4680277, “Targeting Metabolism of Extracellular Nucleotides via Inhibition of Ectonucleotidases CD73 and CD39” (J Med Chem, 2020).
Blank lines part the entries; values can stand above or below the compound they belong to.

Experiments:
[1] = Selectivity ratio of Ki for rat NTPDase3 expressed in CHO cells to Ki for rat CD39 expressed in CHO cells
[2] = target: T1, Ectonucleoside triphosphate diphosphohydrolase 1 (Rattus norvegicus, UniProt P97687); assay: Inhibition of rat CD39 expressed in CHO cells using ATP as substrate incubated for 10 mins by UV absorbance method; assay type: cell-based; conditions: cho
T1 sequence (P97687 whole entry): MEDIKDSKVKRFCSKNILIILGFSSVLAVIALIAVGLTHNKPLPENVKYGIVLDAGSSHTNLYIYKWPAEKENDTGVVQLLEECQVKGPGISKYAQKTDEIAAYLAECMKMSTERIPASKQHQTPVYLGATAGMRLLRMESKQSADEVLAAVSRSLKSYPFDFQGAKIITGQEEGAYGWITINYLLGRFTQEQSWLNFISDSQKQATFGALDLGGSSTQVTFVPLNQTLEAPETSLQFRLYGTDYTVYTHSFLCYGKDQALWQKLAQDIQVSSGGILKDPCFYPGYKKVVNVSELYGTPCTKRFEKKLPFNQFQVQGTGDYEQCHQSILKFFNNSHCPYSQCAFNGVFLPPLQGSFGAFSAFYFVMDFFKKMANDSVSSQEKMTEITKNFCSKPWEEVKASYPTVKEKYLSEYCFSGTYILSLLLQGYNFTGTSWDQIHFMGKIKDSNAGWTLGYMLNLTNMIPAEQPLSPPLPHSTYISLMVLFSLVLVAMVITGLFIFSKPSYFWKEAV

[3] = target: T2, Ectonucleoside triphosphate diphosphohydrolase 2 (Rattus norvegicus, UniProt O35795); assay: Inhibition of rat NTPDase2 expressed in CHO cells using ATP as substrate incubated for 10 mins by UV absorbance method; assay type: cell-based; conditions: cho
T2 sequence (O35795 whole entry): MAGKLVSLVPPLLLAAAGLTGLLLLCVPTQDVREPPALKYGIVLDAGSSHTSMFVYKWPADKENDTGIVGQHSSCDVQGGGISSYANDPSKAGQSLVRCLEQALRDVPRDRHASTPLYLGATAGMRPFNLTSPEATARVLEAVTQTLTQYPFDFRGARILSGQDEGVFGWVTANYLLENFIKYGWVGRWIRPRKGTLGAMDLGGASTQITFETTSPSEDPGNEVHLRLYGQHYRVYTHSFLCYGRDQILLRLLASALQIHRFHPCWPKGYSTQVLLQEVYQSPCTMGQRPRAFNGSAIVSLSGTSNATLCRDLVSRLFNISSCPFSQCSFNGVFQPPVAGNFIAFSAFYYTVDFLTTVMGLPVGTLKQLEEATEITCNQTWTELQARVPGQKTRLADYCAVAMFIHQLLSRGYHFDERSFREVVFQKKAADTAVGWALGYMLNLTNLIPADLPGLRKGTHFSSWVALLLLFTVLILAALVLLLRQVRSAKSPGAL

[4] = Inhibition of rat NTPDase3 expressed in CHO cells using ATP as substrate incubated for 10 mins by UV absorbance method; assay type: cell-based
[5] = Selectivity ratio of Ki for rat NTPDase2 expressed in CHO cells to Ki for rat CD39 expressed in CHO cells
[6] = target: T3, Ectonucleoside triphosphate diphosphohydrolase 8 (Homo sapiens, UniProt Q5MY95); assay: Inhibition of human NTPDase8 expressed in green monkey Cos-7 cells using ATP as substrate preincubated for 3 mins followed by substrate addition by malachite green reagent based assay; assay type: cell-based
T3 sequence (Q5MY95 whole entry): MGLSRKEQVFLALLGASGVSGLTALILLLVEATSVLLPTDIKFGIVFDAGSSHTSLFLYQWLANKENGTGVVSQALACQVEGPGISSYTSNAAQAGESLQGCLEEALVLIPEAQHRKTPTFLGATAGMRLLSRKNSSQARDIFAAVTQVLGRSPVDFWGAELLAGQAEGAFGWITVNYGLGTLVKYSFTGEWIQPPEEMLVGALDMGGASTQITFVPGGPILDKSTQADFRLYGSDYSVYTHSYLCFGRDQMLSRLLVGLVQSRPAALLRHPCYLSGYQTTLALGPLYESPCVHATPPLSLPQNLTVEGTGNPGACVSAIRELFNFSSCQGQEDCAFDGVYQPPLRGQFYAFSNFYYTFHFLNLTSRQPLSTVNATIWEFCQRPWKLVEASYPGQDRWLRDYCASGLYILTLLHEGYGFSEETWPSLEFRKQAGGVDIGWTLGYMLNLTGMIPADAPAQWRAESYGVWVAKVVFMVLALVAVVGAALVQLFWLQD

[7] = target: T4, Ectonucleoside triphosphate diphosphohydrolase 1 (Mus musculus, UniProt P55772); assay: Inhibition of mouse CD39 expressed in green monkey Cos-7 cells using ATP as substrate preincubated for 3 mins followed by substrate addition by malachite green reagent based assay; assay type: cell-based
T4 sequence (P55772 whole entry): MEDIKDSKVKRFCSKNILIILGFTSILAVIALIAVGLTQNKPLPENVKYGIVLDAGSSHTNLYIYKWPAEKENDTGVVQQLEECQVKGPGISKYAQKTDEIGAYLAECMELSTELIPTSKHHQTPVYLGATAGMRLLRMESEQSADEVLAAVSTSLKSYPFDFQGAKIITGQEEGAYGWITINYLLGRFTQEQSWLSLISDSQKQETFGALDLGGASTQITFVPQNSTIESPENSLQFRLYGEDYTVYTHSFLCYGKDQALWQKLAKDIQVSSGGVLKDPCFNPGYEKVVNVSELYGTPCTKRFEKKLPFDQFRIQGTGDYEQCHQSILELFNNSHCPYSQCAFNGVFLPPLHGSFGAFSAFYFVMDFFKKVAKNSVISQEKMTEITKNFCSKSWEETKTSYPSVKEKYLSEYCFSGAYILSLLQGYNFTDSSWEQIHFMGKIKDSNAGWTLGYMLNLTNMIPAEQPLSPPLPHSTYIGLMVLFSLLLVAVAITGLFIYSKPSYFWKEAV

[8] = target: T5, Ectonucleoside triphosphate diphosphohydrolase 3 (Homo sapiens, UniProt O75355); assay: Competitive inhibition of human NTPDase3 using ATP as substrate preincubated for 3 mins followed by substrate addition and measured after 15 mins by Dixon and Cornish-Bowden plot analysis
T5 sequence (O75355 whole entry): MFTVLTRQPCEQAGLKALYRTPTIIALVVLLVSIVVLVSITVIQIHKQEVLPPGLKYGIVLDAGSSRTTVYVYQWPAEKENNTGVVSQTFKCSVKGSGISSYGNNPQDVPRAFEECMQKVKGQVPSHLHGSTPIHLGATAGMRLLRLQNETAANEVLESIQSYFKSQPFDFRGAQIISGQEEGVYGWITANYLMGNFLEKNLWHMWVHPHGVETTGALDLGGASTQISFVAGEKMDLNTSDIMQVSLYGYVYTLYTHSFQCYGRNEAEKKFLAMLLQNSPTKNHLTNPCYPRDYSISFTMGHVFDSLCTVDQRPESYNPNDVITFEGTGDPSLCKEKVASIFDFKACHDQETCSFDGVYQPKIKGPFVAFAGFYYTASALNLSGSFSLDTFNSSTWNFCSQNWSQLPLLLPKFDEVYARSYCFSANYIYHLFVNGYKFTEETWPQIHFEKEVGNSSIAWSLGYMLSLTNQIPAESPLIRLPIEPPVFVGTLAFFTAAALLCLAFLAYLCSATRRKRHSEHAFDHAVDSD

Ki [2]: 0.328 µM | Ki [3]: 19.1 µM
SMILES: Nc1c(S(=O)(=O)[O-])cc(Nc2ccc3ccccc3c2)c2c1C(=O)c1ccccc1C2=O.[Na+]
Ratio Ki [1]: 7 | Ki [4]: 2.22 µM | Ratio Ki [5]: 58

IC50 [6]: > 100 µM | IC50 [7]: > 100 µM
SMILES: Cc1ccc(C(=O)Nc2ccc(S(=O)(=O)O)c3cc(S(=O)(=O)O)cc(S(=O)(=O)O)c23)cc1NC(=O)c1cccc(NC(=O)Nc2cccc(C(=O)Nc3cc(C(=O)Nc4ccc(S(=O)(=O)O)c5cc(S(=O)(=O)O)cc(S(=O)(=O)O)c45)ccc3C)c2)c1 [SURAMIN]

SMILES: CCN(CC)c1ncnc2c1ncn2[C@@H]1O[C@H](COP(=O)(O)OP(=O)(O)C(Br)(Br)P(=O)(O)O)[C@@H](O)[C@H]1O
Ki [8]: 18 µM
